{"source": "patent US20250042926A1", "about": "“THERAPEUTIC COMPOUNDS FOR HIV” (priority 2023, published 2025)", "format": "physicochemical", "conditions": "kinetic solubility from DMSO stock, 1.0% DMSO, 24-hour incubation at ambient temperature, filtrate quantified by CLND", "experimental": "2. Kinetic Solubility Analysis (CLND: Total Chemiluminescent Nitrogen Determination)\nThe final DMSO Concentration is 1.0% and maximum theoretical compound concentration is […] (assuming stock concentration of 10 mM). The filter plate is sealed. Following 24-hour incubation at ambient temperature (21.7-23.8° C.), the samples are vacuum filtered, and the filtrates are collected in a 96 well polypropylene plate for analysis. The collection plate is sealed for analysis.\nFiltrates are injected into the nitrogen detector for quantification on Analiza's Automated Discovery Workstation. The equimolar nitrogen response of the detector is calibrated using standards which span the dynamic range of the instrument from 0.08 to 4500 μg/ml nitrogen. The filtrates are quantified with respect to this calibration curve. The calculated solubility values are corrected for background nitrogen present in the DMSO, and the media used to prepare the samples. The 1×PBS buffer (pH 7.4) is prepared by adding 50 mL of phosphate buffered saline solution 10×, PBS (Fisher Bioreagent part number BP399-500) to approximately 450 mL HPLC grade H2O. The volume of the solution is then adjusted to 500 mL for a total dilution factor of 1:10 and a final PBS concentration of 1X.", "data": [{"compound": "Cc1cc(CC(=O)N[C@@H](CC(=O)O)C(=O)O)c(C(C)(C)CC(=O)N(c2nn(C)c3c(-n4c([C@H](Cc5cc(F)cc(F)c5)NC(=O)Cn5nc(C(F)F)c6c5C(F)(F)[C@@H]5C[C@H]65)nc5cc(-c6cccc(C(F)(F)F)n6)ccc5c4=O)ccc(Cl)c23)S(C)(=O)=O)c(OP(=O)(O)O)c1", "note": "[Compound 5, (2-(2-(4-(N-(4-Chloro-7-(2-((S)-1-(2-((3bS,4aR)-3-(difluoromethyl)-5,5-difluoro-3b,4,4a,5-tetrahydro-1H-cyclopropa[3,4]cyclopenta[1,2-c]pyrazol-1-yl)acetamido)-2-(3,5-difluorophenyl)ethyl)-4-oxo-7-(6-(trifluoromethyl)pyridin-2-yl)quinazolin-3(411)-yl)-1-methyl-1H-indazol-3-yl)methylsulfonamido)-2-methyl-4-oxobutan-2-yl)-5-methyl-3-(phosphonooxy)phenyl)acetyl)-L-aspartic acid]", "values": [{"measurement": "pH 2 Solubility (μM)", "setting": "pH 2 (medium 0.1N HCl)", "value": 1.1, "unit": "μM"}, {"measurement": "pH 7 Solubility (μM)", "setting": "pH 7 (medium 1×PBS buffer pH 7.4)", "value": 76, "unit": "μM"}]}]}
